Active and inactive are the calls of the source. The rule behind the calls is not given here.
Experiments:
[1] = target: T1, Mitogen-activated protein kinase kinase kinase 7 (Homo sapiens) (UniProt O43318); assay: Inhibition of TAK1 assessed as residual activity of enzyme at 25 uM
T1 sequence (whole entry): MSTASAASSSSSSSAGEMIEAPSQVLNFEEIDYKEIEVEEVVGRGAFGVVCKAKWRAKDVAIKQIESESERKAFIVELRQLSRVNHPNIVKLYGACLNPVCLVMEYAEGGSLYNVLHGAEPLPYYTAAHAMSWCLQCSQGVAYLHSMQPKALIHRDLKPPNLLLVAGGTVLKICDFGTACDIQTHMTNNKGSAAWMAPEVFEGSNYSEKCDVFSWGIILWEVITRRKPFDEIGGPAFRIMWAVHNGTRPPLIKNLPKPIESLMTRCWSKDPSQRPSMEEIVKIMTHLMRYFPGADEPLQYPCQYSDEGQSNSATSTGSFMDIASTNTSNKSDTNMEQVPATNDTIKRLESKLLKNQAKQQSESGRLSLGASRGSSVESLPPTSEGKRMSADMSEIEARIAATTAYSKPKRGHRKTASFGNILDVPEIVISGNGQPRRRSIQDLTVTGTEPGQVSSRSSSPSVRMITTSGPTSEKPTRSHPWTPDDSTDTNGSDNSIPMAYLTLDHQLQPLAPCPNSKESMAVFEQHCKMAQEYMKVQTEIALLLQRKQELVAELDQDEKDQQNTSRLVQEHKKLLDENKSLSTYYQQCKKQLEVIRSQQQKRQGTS

[2] = target: RAF proto-oncogene serine/threonine-protein kinase (Homo sapiens) (UniProt P04049); assay: Inhibition of c-Raf assessed as residual activity of enzyme at 25 uM
[3] = target: T2, Serine/threonine-protein kinase TAO3 (Homo sapiens) (UniProt Q9H2K8); assay: Inhibition of TAO3 assessed as residual activity of enzyme at 25 uM
T2 sequence (whole entry): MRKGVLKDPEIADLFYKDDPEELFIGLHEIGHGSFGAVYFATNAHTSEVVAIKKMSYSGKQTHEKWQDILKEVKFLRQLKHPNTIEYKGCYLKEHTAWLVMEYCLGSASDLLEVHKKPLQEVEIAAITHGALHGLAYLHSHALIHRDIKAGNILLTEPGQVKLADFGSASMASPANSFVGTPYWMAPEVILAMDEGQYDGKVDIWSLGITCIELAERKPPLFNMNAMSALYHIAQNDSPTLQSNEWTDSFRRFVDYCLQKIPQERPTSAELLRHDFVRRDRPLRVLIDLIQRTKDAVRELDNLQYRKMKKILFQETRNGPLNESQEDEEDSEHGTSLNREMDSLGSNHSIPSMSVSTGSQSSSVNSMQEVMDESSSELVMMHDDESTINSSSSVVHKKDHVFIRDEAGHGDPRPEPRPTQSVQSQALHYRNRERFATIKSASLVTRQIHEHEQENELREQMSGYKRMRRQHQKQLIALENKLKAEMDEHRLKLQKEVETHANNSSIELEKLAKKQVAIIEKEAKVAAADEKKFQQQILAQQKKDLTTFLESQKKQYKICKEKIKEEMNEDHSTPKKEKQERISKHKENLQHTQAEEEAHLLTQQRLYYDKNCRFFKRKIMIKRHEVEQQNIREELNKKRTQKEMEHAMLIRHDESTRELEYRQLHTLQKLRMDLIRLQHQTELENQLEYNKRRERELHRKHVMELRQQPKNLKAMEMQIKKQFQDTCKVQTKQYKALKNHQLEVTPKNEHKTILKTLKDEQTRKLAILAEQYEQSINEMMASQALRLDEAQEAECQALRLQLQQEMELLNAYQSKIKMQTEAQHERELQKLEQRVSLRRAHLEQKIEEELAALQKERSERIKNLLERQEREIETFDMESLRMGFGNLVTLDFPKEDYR

[4] = test system: Leucine-rich repeat serine/threonine-protein kinase 2 (Homo sapiens), Q5S007 [G2019S]; assay: Inhibition of purified N-terminal GST-tagged LRRK2 G2019S mutant autophosphorylation activity using myelin basic protein as substrate at 25 uM
Leucine-rich repeat serine/threonine-protein kinase 2 (Homo sapiens), Q5S007 [G2019S], sequence (Q5S007 whole entry G2019S): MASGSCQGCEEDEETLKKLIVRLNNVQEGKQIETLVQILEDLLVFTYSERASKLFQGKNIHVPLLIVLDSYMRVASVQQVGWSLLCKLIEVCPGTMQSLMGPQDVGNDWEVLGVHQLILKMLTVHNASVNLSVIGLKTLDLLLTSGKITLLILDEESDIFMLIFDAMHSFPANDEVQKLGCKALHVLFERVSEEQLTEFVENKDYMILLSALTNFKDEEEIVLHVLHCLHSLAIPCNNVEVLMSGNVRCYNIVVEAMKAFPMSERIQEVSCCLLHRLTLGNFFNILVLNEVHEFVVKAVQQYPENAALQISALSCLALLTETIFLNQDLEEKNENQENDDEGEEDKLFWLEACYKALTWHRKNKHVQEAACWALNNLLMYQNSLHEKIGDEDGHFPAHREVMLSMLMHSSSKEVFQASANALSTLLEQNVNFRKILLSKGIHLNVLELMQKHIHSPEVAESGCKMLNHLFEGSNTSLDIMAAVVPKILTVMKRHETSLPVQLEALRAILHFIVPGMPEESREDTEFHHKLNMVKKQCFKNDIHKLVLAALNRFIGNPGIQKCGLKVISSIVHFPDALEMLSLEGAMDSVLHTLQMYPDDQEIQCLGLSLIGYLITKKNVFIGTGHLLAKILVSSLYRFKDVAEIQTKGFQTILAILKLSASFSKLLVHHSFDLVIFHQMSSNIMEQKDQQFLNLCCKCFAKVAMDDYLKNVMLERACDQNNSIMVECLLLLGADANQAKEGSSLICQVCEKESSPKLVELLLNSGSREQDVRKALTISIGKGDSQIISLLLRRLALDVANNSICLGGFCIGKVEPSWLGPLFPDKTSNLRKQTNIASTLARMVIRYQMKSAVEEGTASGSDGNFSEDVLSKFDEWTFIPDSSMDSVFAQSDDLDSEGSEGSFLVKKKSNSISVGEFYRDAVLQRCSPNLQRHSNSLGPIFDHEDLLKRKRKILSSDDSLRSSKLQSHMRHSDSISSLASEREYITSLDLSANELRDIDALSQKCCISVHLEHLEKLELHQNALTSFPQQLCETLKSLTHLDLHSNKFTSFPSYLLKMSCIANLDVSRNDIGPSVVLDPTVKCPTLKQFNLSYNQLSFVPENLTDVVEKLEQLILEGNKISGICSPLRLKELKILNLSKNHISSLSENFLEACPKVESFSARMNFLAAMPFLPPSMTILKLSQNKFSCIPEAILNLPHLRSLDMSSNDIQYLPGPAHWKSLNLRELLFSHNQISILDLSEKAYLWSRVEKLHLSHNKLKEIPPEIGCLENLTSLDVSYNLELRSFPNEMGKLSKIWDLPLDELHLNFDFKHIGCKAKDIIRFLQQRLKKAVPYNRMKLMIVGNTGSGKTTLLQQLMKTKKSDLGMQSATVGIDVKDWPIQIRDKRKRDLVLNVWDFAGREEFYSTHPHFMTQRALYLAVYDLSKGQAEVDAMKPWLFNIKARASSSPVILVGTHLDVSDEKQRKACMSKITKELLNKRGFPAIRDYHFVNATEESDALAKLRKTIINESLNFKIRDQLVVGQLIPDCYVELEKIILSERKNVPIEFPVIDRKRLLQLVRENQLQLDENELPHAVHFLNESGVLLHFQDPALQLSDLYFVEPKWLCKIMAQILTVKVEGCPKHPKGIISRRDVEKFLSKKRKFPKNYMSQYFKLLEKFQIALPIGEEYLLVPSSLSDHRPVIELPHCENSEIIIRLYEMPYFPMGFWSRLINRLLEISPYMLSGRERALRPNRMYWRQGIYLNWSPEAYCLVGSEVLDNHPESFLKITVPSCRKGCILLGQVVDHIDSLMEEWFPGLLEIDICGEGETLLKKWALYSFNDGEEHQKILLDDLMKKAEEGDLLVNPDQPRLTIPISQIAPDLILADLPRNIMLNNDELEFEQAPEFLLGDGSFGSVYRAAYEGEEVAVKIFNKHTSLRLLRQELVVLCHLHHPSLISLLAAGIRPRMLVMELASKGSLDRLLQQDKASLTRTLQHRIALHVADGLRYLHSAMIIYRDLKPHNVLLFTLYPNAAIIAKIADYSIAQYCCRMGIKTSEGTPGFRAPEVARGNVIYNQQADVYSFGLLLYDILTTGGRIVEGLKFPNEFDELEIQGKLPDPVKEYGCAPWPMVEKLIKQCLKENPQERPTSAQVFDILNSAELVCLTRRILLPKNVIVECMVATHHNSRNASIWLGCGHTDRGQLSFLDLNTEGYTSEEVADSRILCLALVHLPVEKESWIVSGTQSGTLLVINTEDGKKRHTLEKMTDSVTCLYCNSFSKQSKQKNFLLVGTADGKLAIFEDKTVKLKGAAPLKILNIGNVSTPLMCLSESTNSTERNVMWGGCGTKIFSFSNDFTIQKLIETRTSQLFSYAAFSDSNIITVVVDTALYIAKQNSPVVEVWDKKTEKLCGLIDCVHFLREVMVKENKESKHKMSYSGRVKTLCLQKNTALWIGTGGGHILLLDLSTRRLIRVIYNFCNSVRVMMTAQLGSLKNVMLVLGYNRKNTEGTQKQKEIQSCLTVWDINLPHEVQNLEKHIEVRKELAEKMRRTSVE

[5] = target: Leucine-rich repeat serine/threonine-protein kinase 2 (Homo sapiens) (UniProt Q5S007); assay: Inhibition of wild type LRRK2 expressed in mouse SN4741 cells assessed as reduction in hydrogen peroxide-induced neurotoxicity at 10 uM by measuring cell survival after 48 hrs by crystal violet assay relative to control; format: cell-based
Leucine-rich repeat serine/threonine-protein kinase 2 (Homo sapiens), sequence (Q5S007 whole entry): as the sequence (Q5S007 whole entry G2019S) above, with S2019G counted along it

[6] = target: Serine/threonine-protein kinase mTOR (Homo sapiens) (UniProt P42345); assay: Inhibition of mTOR assessed as residual activity of enzyme at 25 uM
[7] = target: Ribosomal protein S6 kinase beta-1 (Homo sapiens) (UniProt P23443); assay: Inhibition of p70S6K assessed as residual activity of enzyme at 10 uM
Ribosomal protein S6 kinase beta-1 (Homo sapiens), sequence (P23443 whole entry, looked up): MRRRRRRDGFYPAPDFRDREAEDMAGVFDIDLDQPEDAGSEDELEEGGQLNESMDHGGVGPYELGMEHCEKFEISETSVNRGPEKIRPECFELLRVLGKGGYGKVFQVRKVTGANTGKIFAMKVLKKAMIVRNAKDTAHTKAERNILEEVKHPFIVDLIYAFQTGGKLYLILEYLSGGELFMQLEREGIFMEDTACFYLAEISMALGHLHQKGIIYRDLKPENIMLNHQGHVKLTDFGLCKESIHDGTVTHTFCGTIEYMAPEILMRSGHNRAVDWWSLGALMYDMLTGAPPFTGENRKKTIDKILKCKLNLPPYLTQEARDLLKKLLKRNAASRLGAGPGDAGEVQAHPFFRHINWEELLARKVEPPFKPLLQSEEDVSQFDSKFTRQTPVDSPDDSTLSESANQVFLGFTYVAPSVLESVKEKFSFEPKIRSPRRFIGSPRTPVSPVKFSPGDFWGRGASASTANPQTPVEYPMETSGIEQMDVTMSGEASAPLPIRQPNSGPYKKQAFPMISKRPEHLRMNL

[8] = target: T2, Serine/threonine-protein kinase TAO3 (Homo sapiens); assay: Inhibition of TAO3 assessed as residual activity of enzyme at 10 uM
[9] = target: Casein kinase I isoform alpha (Homo sapiens) (UniProt P48729); assay: Inhibition of CK1 assessed as residual activity of enzyme at 25 uM
Casein kinase I isoform alpha (Homo sapiens), sequence (P48729 2-337 limits assumed): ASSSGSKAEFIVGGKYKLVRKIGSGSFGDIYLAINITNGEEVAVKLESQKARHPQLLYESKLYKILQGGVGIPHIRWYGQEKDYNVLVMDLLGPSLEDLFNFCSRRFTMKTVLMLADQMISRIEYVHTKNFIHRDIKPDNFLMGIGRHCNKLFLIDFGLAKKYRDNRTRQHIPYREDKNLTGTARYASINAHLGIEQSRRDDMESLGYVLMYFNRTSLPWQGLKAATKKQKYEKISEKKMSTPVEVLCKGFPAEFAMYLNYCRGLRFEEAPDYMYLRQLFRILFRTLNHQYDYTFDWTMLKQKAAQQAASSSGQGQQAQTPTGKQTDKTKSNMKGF

[10] = target: Mitogen-activated protein kinase kinase kinase 9 (Homo sapiens) (UniProt P80192); assay: Inhibition of MLK1 assessed as residual activity of enzyme at 10 uM
Mitogen-activated protein kinase kinase kinase 9 (Homo sapiens), sequence (P80192 whole entry, looked up): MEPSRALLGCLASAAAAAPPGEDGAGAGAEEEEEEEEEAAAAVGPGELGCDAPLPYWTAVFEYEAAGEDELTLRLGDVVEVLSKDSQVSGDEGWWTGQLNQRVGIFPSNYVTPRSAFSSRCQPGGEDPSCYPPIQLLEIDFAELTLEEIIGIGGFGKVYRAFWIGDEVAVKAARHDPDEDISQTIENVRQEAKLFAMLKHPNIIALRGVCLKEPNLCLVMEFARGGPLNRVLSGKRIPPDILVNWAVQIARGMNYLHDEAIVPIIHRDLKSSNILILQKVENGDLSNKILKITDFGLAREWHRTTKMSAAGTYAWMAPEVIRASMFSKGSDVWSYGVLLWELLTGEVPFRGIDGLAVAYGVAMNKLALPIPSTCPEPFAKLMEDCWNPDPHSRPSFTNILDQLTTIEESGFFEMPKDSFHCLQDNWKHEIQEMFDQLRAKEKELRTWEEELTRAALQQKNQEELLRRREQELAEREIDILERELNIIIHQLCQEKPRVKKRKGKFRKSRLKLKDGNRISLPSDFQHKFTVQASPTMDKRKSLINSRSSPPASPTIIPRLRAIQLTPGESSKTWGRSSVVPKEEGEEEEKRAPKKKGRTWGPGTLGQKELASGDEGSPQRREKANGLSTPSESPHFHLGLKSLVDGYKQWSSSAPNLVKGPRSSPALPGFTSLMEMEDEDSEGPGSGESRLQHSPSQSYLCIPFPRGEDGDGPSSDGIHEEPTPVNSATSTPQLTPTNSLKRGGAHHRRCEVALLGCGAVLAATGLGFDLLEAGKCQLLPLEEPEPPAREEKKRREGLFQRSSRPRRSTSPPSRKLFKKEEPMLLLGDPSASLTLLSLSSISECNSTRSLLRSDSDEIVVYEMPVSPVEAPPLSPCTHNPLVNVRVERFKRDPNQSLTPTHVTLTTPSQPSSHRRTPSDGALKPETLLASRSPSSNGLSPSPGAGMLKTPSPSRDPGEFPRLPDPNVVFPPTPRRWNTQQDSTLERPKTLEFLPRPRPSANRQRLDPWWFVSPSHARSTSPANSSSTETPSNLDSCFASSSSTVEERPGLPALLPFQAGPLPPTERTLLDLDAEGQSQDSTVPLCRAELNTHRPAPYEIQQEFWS

With `Cc1cc(N/N=C/c2ccncc2)nc2ccccc12` the Activity [1] was 48%, the Activity [2] was 86% and the Activity [3] was 81%. The inhibition [4] was “Active”, the Activity [5] was 50% and the Activity [6] was 99%. For the same compound, the Activity [7] was 67%, the Activity [8] was 97% and the Activity [9] was 59%. It also gave an Activity [10] of 20%.

— ChEMBL document CHEMBL1770059, “Identification of chemicals to inhibit the kinase activity of leucine-rich repeat kinase 2 (LRRK2), a Parkinson's disease-associated protein” (Bioorg Med Chem Lett, 2011)
